pIC50: −log10 of the molar value. ≈ marks a conversion by molar mass, not a printed value.
Experiments:
Macrophage = experiment: cells; details: Mus musculus, 72 h
Description: (§1) Cytotoxicity against mouse peritoneal Macrophage cells assessed as reduction in cell viability incubated for 3 days by fluorimetry

physchem [1] = details: PBS buffer, pH 7.4
Description: Kinetic solubility of compound in PBS buffer at pH 7.4

in vitro [2] = details: mouse, peritoneal macrophages
Description: as §1

in vitro [3] = details: human, MRC5 SV2 cells
Description: (§2) Cytotoxicity against human MRC5 SV2 cells assessed as reduction in cell viability incubated for 3 days by fluorimetry

in vitro [4] = details: human, liver microsomes
Description: Metabolic stability in human liver microsomes assessed as intrinsic clearance at 0.5 uM incubated for 30 mins by LC-MS/MS analysis

Leishmania infantum = experiment: microbe, parasite or virus in culture; details: for pIC50: MHOM/MA(BE)/67/ITMAP263, 120 h; for IC90: MHOM/MA(BE)/67/ITMAP263, in Mus musculus, 120 h
Description: Antileishmanial activity against amastigote stage of Leishmania infantum MHOM/MA(BE)/67/ITMAP263 infected in mouse peritoneal macrophage assessed as parasite growth inhibition incubated for 5 days by Giemsa staining based assay

in vitro [5] = details: human, MRC5 SV2 cells; remark: listed apart in the source
Description: Selectivity index, ratio of IC50 for human MRC5 SV2 cells to IC50 for Trypanosoma cruzi Tulahuen CL2 amastigotes infected in human MRC5 SV2 cells

in vitro [6] = details: mouse, liver microsomes
Description: Metabolic stability in mouse liver microsomes assessed as intrinsic clearance at 0.5 uM incubated for 30 mins by LC-MS/MS analysis

in vitro [7] = details: dog, MDCK
Description: Apparent permeability across basolateral to apical side in MDCK cells

Trypanosoma brucei = experiment: microbe, parasite or virus in culture; details: Squib 427, 72 h
Description: Antitrypanosomal activity against Trypanosoma brucei Squib 427 assessed as reduction in parasite growth incubated for 72 hrs by resazurin dye based fluorimetric analysis

in vitro [8] = details: dog, MDCK; remark: listed apart in the source
cells = details: Homo sapiens, MRC-5 SV2, 72 h
Description: as §2

physchem [9] = details: PBS buffer, pH 2
Description: Kinetic solubility of compound in PBS buffer at pH 2

[10] = tested on: Trypanosoma brucei rhodesiense; experiment: microbe, parasite or virus in culture; details: STIB900, 72 h
Description: Antiprotozoal activity against Trypanosoma brucei rhodesiense STIB900 trypomastigotes incubated for 72 hrs by resazurin dye based fluorimetric analysis

Trypanosoma cruzi = experiment: microbe, parasite or virus in culture; details: Tulahuen CL2, MRC-5 SV2, 168 h
Description: Antitrypanosomal activity against Trypanosoma cruzi Tulahuen CL2 amastigotes infected in human MRC5 SV2 cells incubated for 7 days by chlorophenol red beta-D-galactopyranoside substrate based spectrophotometric assay

in vitro [11] = details: human, MRC5 SV2 cells; remark: listed apart in the source
Description: Selectivity index, ratio of IC50 for human MRC5 SV2 cells to IC50 for Trypanosoma brucei Squib 427

in vitro [12] = details: mouse, peritoneal macrophages; remark: listed apart in the source
Description: Selectivity index, ratio of IC50 for mouse peritoneal macrophage to IC50 for Leishmania infantum MHOM/MA(BE)/67/ITMAP263 infected in mouse peritoneal macrophage

in vitro [13] = details: mouse, liver microsomes; remark: listed apart in the source
Description: Metabolic stability in mouse liver microsomes assessed as fraction unbound at 0.5 uM incubated for 30 mins by LC-MS/MS analysis

in vitro [14] = details: human, MRC5 SV2 cells; remark: listed apart in the source
Description: Selectivity index, ratio of IC50 for human MRC5 SV2 cells to IC50 for Trypanosoma brucei rhodesiense STIB900 trypomastigotes

physchem [15] = details: buffer, pH 7.4
Description: Lipophilicity, logD of compound at pH 7.4 by HPLC analysis

in vitro [16] = details: PAMPA
Description: Effective permeability of compound by PAMPA assay

solubility kinetic (physchem [1])	IC90 at 72 h (in vitro [2])	IC90 at 72 h (in vitro [3])	CLint scaled at 0.5 h, 0.5 µM (in vitro [4])	microsomal CLint at 0.5 h, 0.5 µM (in vitro [4])	pIC50 (Leishmania infantum)	IC90 (Leishmania infantum)	CLint scaled at 0.5 h, 0.5 µM (in vitro [6])	microsomal CLint at 0.5 h, 0.5 µM (in vitro [6])	Papp B→A (in vitro [7])	pIC50 (Trypanosoma brucei)	IC90 (Trypanosoma brucei)	Papp A→B (in vitro [8])	pIC50 [10]	IC90 [10]	Structure (SMILES)	pIC50 (Macrophage)	selectivity ratio (in vitro [5])	pIC50 (cells)	pIC50 (Trypanosoma cruzi)	IC90 (Trypanosoma cruzi)	also measured
60.4 µg/mL (≈ 178 µM)	32 to 64 µM	64 µM	67.8 mL/min/kg	37 µL/min/mg	4.19 to 4.49	32 to 64 µM	1600 mL/min/kg	560 µL/min/mg	33.2 ×10⁻⁶ cm/s	4.26 to 4.49	32 to 64 µM	29.4 ×10⁻⁶ cm/s	4.42 to 4.49	32 to 58.7 µM	CC(C)c1cc(C(=O)N2CCCC(c3cc4ncccc4[nH]3)C2)on1 (centres undefined)	4.19 to 4.49	8.25 to 22.1	4.19	5.41 to 5.54	7.61 to 24.3 µM	solubility kinetic (physchem [9]): > 67.3 µg/mL
	59.7 µM	60.9 µM	83.7 mL/min/kg	50.6 µL/min/mg	4.43	60.5 µM	5840 mL/min/kg	1200 µL/min/mg		4.50	59.1 µM		5.04	35.5 µM	CN(C(=O)c1ccccc1)c1cccc(-c2cc3ncccc3[nH]2)c1	4.34	3.59	4.58	5.14	64 µM	selectivity ratio (in vitro [11]): 0.849; selectivity ratio (in vitro [12]): 0.707; fraction unbound at 0.5 h, 0.5 µM (in vitro [13]): 0.653; selectivity ratio (in vitro [14]): 2.89; logD (physchem [15]): 3.3; Papp (in vitro [16]): 2.78 ×10⁻⁶ cm/s
10.4 µg/mL (≈ 31 µM)	64 µM	64 µM	119 mL/min/kg	23 to 59.2 µL/min/mg	4.38 to 4.55		2650 mL/min/kg	398 to 446 µL/min/mg	15.3 ×10⁻⁶ cm/s	4.41 to 4.44	58.8 to 63.5 µM	14.6 ×10⁻⁶ cm/s	4.81 to 5.10	36.4 to 49.5 µM	CC(C)c1cc(C(=O)N2CC=C(c3cc4ncccc4[nH]3)CC2)on1	4.19	30.1 to 31.8	4.19	5.67 to 5.70	3.79 to 15.4 µM	selectivity ratio (in vitro [11]): 1.74; selectivity ratio (in vitro [12]): 2.32; selectivity ratio (in vitro [14]): 4.14 to 8.02; logD (physchem [15]): 3.23; solubility kinetic (physchem [9]): > 67.3 µg/mL; Papp (in vitro [16]): 1.54 ×10⁻⁶ cm/s

Source: ChEMBL document CHEMBL4342426, “Structure-activity relationship of 4-azaindole-2-piperidine derivatives as agents against Trypanosoma cruzi” (Bioorg Med Chem Lett, 2020)
